Results on one compound are retold here after publication PMC6923382, “Small molecules that inhibit TNF signalling by stabilising an asymmetric form of the trimer” (Nature Communications, 2019).

Values joined by “and” are separate entries in the source; they are usually repeats but may differ in a detail not shown here. Identical values can stand only once.

Experiment [1] has as its system TNFR1 signalling complex (RIP-1, pNF-κB). As to the kind of experiment: TNFR1 immunoprecipitation and signalling assay (Jurkat cells). It counts as cell-based, human. The note with it: 10 µM compound pre-incubated 1 h with TNF 25 ng/mL, Western blot. As to the method:
Cells were then lysed for 1 h in cold lysis buffer (1% NP-40, 150 mM NaCl, 50 mM Tris pH 8.0, 25 mM NaF, 1 mM vanadate, 1% phosphatase inhibitor and 0.2% protease inhibitor cocktail), and cell supernatant harvested. TNFR1 immunoprecipitation was performed by incubating supernatant with 5 µg anti-TNFR1 antibody (R&D systems, #AB-225-PB) overnight while rotating at 4 °C, followed by the addition of 20 µL protein G sepharose beads for 1 h rotating at 4 °C. An isotype control sample was incubated with 5 µg goat IgG, instead of anti-TNFR1 antibody to assess how much unspecific binding to the beads occurs during immunoprecipitation. Beads were subsequently washed 3× in lysis buffer, and then the supernatant removed and SDS-PAGE reducing sample buffer added to beads and samples boiled for 10 min. Sample (15 µL) was then loaded on a 4–12% Bis-Tris gel and run for 65 min at 200 V in MOPS buffer. […] RIP-1 ubiquitination (1:250 dilution, BD, #610459) was then detected by Western blotting using anti-mouse-HRP (1:2000 dilution, Cell Signalling Technology, #7076). pNFκB (1:1000 dilution, Cell Signalling Technology, #3033) and GAPDH (1:4000 dilution, Cell Signalling Technology, #5174) were measured in the total cell lysates by Western blotting using anti-rabbit HRP (1:2000 dilution, Cell Signalling Technology, #7074). […]
(In western blotting, separated proteins are transferred to a membrane and probed.)

Experiment [2] has as its target T1, TNF (Homo sapiens, UniProt P01375). Put plainly: Thermal denaturation assay of thermal stability. The experiment is classed as binding. Details: stabilise an asymmetrical form of the soluble TNF trimer. Here is the method: A fluorescence probed thermal denaturation assay was performed to assess the effect of the compounds on the thermal stability of TNF (or other members of the TNF family) as a measure of compound binding. The reaction mixture contained 5 µL of 30× SYPRO® Orange dye (Invitrogen) and 5 µL of TNF (at 1 mg/mL), 37.5 μL PBS, pH 7.4 and 2.5 μL of compound (at 2 mM in DMSO). The mixture (10 µL) was dispensed in quadruplicate into a 384 PCR optical well plate and was run on a 7900HT Fast Real-Time PCR System ([…]). The PCR System heating device was set at 20 °C to 99 °C with a ramp rate of 1.1 °C min^−1; fluorescence changes in the wells were monitored by a CCD device. The fluorescence intensity increase was plotted as a function of temperature and the Tm calculated as the midpoint of this denaturation curve (determined as the point of inflection).

For experiment [3], the target named is T1, TNF. Put plainly: Human TNF induced neutrophil recruitment in vivo. Details: stabilise an asymmetrical form of the soluble TNF trimer. The note with it: for CD45+ GR-1+ cells/mL in the peritoneal cavity: human TNF, individual mice. As to the method: All in vivo studies were reviewed by an internal Ethical Review Body (ERB) and conducted in accordance with the Animals (Scientific Procedures) Act 1986, EU Directive 2010/63/EU. […] Anti-TNFα biologics, CDP571[21] (10 mg/kg) and etanercept (30 mg/kg), diluted in PBS, were dosed intravenously prior to human and mouse TNF challenge. Two hours after the TNF challenge, mice were sacrificed and the peritoneal cavity lavaged with 3 mL of FACS buffer. An aliquot (0.3 mL) of lavage fluid was used to assess the number CD45^+GR1^+ cells by flow cytometry. Briefly, the cells were treated with ACK lysis buffer, washed and suspended in FACS buffer prior to staining with FITC anti-mouse CD45 and PE anti-mouse GR1. Data are shown as mean ± standard error of the number of CD45^+GR-1^+ cells. Statistical significance (*p < 0.05, **p < 0.01, ****p < 0.0001) was determined using one-way ANOVA with Dunnett’s multiple comparison test.

A further experiment addresses T2, mouse TNF (Mus musculus, UniProt P06804).
T2 construct: stabilise an asymmetrical form of the soluble TNF trimer
T2 sequence (P06804 80-235 limits assumed): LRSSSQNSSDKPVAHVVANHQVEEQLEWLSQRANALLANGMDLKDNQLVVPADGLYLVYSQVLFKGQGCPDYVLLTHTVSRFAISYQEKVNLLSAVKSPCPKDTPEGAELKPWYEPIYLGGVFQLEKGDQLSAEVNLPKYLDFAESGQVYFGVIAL
As to the kind of experiment: TNF L929 cytotoxicity assay, mouse TNF. It counts as cell-based. The conditions noted are these: for Luminescence units: Mouse TNF, L929. Here is the method:
TNF (human or mouse) kills L929 cells which have been compromised by incubation with a sub-lethal concentration of actinomycin D, and this effect is inhibited with TNF biologics. Compounds were titrated in DMSO, and then pre-incubated with human or mouse TNF for 1 h. L929 cells (ECACC, #85011425) in media containing actinomycin D (2 µg/mL) were added to the TNF inhibitor mixture and incubated for 18 h. L929 cytotoxicity was measured by the addition of CellTitreGlo (Promega). Luminescence was measured after an incubation of at least 20 min in the dark. Percentage inhibition was calculated between unstimulated wells (maximum signal), and wells with TNF, DMSO and actinomycin D (minimum signal). The IC50 was calculated as the point of inflexion for a 4PL fitted curve. Mean IC50s are reported as a mean of at least two experiments. Cells were described as mycoplasma-free when purchased and were tested using Mycoalert (Lonza) after each batch of assay vial preparation.

As a reminder, the IC50 is the concentration that inhibits the measured activity by half.

T1 sequence (P01375 77-233 limits assumed): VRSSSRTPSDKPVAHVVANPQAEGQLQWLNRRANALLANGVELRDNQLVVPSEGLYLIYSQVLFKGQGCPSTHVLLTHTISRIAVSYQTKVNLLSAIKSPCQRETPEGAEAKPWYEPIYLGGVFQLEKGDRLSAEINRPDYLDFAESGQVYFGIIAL

Consider `Cc1ccc(C)c(Cn2c(C(O)c3ccncc3)nc3ccc(-c4cnn(C)c4)cc32)c1` (stereo not drawn) [UCB-9260], for which, in experiment [1], the “RIP recruitment to TNFR signalling complex and phosphorylation of NF-κB” value is on record as “markedly reduced”. The “Tm difference (hTNF + compound) - (hTNF+DMSO)” value on TNF [2] (DMSO 5%) was 17.3 °C. At TNF [2] (hTNF + DMSO (5%) + compound, n=4 replicates), the “Tm (mean ± SD)” value stood at 78.0 ± 0.7 °C. Further, the Tm1 Average on TNF [2] (inhouse hTNF 5% DMSO + compound, 4 wells) came out at 78 °C. On TNF [2] (single wells, inhouse hTNF 5% DMSO + compound, listed as 1449260-000, in °C), the “Unreviewed - Tm1” value is 77.1 and 77.9 and 78.1 and 78.7. Moreover, the “CD45+ GR-1+ cells/mL in the peritoneal cavity” value is 80382.4 cells/mL and 68398.8 cells/mL and 97517.0 cells/mL and 65083.3 cells/mL and 43379.0 cells/mL and 51529.8 cells/mL at TNF [3] (10mg/kg); 12661.4 cells/mL and 54428.1 cells/mL and 25233.7 cells/mL and 91899.5 cells/mL and 50362.8 cells/mL and 37741.7 cells/mL on TNF [3] (30mg/kg); 14437.1 cells/mL and 19826.5 cells/mL and 38381.4 cells/mL and 4238.2 cells/mL and 19466.7 cells/mL and 51556.6 cells/mL and 16326.3 cells/mL and 11513.0 cells/mL at TNF [3] (100mg/kg); 3894.3 cells/mL and 4438.0 cells/mL and 8909.7 cells/mL and 7748.4 cells/mL and 19700.6 cells/mL and 11113.9 cells/mL on TNF [3] (300mg/kg). At TNF [3] (oral, human TNF i.p., CD45+GR1+ cells), the “dose with significant inhibition of neutrophil recruitment” value was 30 mg/kg. Moreover, the Luminescence units stood at 12797 Luminescence units on mouse TNF (compound -logM 4.6); 13525 Luminescence units on mouse TNF (compound -logM 5.08); 13101 Luminescence units on mouse TNF (compound -logM 5.56); 12546 Luminescence units at mouse TNF (compound -logM 6.03); 10886 Luminescence units at mouse TNF (compound -logM 6.51); 9129 Luminescence units at mouse TNF (compound -logM 6.99). For the same compound, the Luminescence units at mouse TNF (compound -logM 7.46) stood at 7403 Luminescence units; on mouse TNF (compound -logM 7.94), 7468 Luminescence units; on mouse TNF (compound -logM 8.42), 7718 Luminescence units; on mouse TNF (compound -logM 8.9), 5980 Luminescence units. At mouse TNF (mouse TNF, mouse L929 cells + actinomycin D, read-out: geometric mean IC50, TNF-dependent cytotoxicity), the IC50 came to 120 nM.
